Test results reported in US20250000858A1, “FGFR TYROSINE KINASE INHIBITORS FOR THE TREATMENT OF ADVANCED SOLID TUMORS” (JANSSEN PHARMACEUTICA NV, priority 2021, published 2025).

System: advanced solid tumors with FGFR mutations or fusions
Experiment: Phase 2 RAGNAR study (NCT04083976): tumor response per RECIST v1.1 or RANO by IRC and investigator (ORR, DOR, DCR, CBR, PFS, OS, best overall response)
Format: in vivo, human
Details: for DOR of longest ongoing PR: + = censored, IA3; for Clinical Benefit Rate n(%) (95% CI) / Confirmed Objective Response Rate n(%) (95% CI) / Disease Control Rate n(%) (95% CI) / Median DOR (95% CI) / Median PFS (95% CI) / Median OS (95% CI): BPC; for Clinical Benefit Rate n(%) (95% CI) / Confirmed Objective Response Rate n(%) (95% CI) / Disease Control Rate n(%) (95% CI) / Median DOR (95% CI) / Median PFS (95% CI): IRC
Text: Subjects ≥12 years of age with target FGFR mutations or any FGFR gene fusions were enrolled into the Broad Panel Cohort. […] A subgroup of subjects in the Broad Panel Cohort with a select panel of pre-specified FGFR markers were identified as the Core Panel Cohort (for analysis only). While the Broad Panel Cohort consists of target FGFR mutations and any fusions, the Core Panel Cohort consists of a select subset of FGFR mutations or fusions. Subjects with any other FGFR mutations that are not captured in the Broad Panel Cohort are included in the study as the Exploratory Cohort. A separate Cholangiocarcinoma Expansion Cohort enrolled subjects with target FGFR mutations or any FGFR gene fusion once the Broad Panel Cohort reached the cap of approximately 30 subjects for cholangiocarcinoma. […] Adolescent subjects enrolled in the Broad Panel Cohort (≥12 to <18 years) are considered part of the Broad Panel Cohort and the Pediatric Cohort.
(§1) Each dose was taken approximately at the same time each day, with or without food.
The Treated Population will consist of all subjects who receive at least 1 dose of study drug. The Treated Population is the primary population for efficacy and safety analyses. […] Adequate disease assessment is defined as having enough evidence to indicate that progression has or has not occurred.
Statistical Methods: For the Broad Panel Cohort, the primary endpoint was overall response rate (ORR) based on RECIST v1.1. or RANO as assessed by the IRC and was calculated with a 95% 2-sided exact confidence interval (CI). The primary endpoint was analyzed using data from the Treated Population (defined as all subjects who receive at least 1 dose of study drug) in the Broad Panel Cohort and the Core Panel Cohort. An error-spending function approach was used to split the significance level for the Broad Panel Cohort and the Core Panel Cohort.
as §1

[1] = CUP (Carcinoma of Unknown Primary), N=8
[2] = EDMTL (Endometrial Cancer), N=6
[3] = HNSCC (Squamous Cell Head and Neck Cancers), N=5
[4] = Others (tumor histologies with 1 subject treated), N=14
[5] = PANCR (Pancreatic Cancer), N=13
[6] = SALIV (Salivary Gland Cancer), N=5
[7] = nonsqNSCLC (Non-squamous NSCLC), N=7
[8] = BRST (breast cancer), N=7, efficacy analysis set, investigator assessment

COc1cc(OC)cc(N(CCNC(C)C)c2ccc3ncc(-c4cnn(C)c4)nc3c2)c1 [erdafitinib, N-(3,5-dimethoxy-phenyl)-N′-(1-methylethyl)-N-[3-(1-methyl-1H-pyrazol-4-yl)quinoxalin-6-yl]ethane-1,2-diamine]
DOR of longest ongoing PR (1 patient with endometrial cancer): ≥ 13.7 months | DOR of longest ongoing PR (1 patient with pancreatic cancer): ≥ 13.8 months | clinical benefit rate (CBR: CR+PR+SD>4 months) (69/124, efficacy analysis set): 55.6% | Objective Response Rate (BCC, N=1, efficacy analysis set, investigator assessment): 0 (NE, NE) % | Clinical Benefit Rate n(%) (95% CI) (BRST (Breast Cancer), N=14): 6 (42.9%) | Confirmed Objective Response Rate n(%) (95% CI) (BRST (Breast Cancer), N=14): 5 (35.7%) | Disease Control Rate n(%) (95% CI) (BRST (Breast Cancer), N=14): 9 (64.3%) | Median DOR (95% CI) (BRST (Breast Cancer), N=14): NE (NE, NE) | Median PFS (95% CI) (BRST (Breast Cancer), N=14): 4.17 (1.22, NE) months | Confirmed Objective Response Rate n(%) (95% CI) (CCA (Cholangiocarcinoma), N=31): 16 (51.6%) | Disease Control Rate n(%) (95% CI) (CCA (Cholangiocarcinoma), N=31): 30 (96.8%) | Median PFS (95% CI) (CCA (Cholangiocarcinoma), N=31): 8.25 (6.41, 9.72) months | Clinical Benefit Rate n(%) (95% CI) (CRC (Colorectal Cancer), N=6): 1 (16.7%) | Confirmed Objective Response Rate n(%) (95% CI) (CRC (Colorectal Cancer), N=6): 0 (NE, NE) % | Disease Control Rate n(%) (95% CI) (CRC (Colorectal Cancer), N=6): 2 (33.3%) | Median PFS (95% CI) (CRC (Colorectal Cancer), N=6): 1.15 (0.43, NE) months | Clinical Benefit Rate n(%) (95% CI) (CRVX (Cervical Cancer), N=4): 1 (25.0%) | Confirmed Objective Response Rate n(%) (95% CI) (CRVX (Cervical Cancer), N=4): 0 (NE, NE) % | Disease Control Rate n(%) (95% CI) (CRVX (Cervical Cancer), N=4): 3 (75.0%) | Median PFS (95% CI) (CRVX (Cervical Cancer), N=4): 3.52 (1.38, NE) months | Clinical Benefit Rate n(%) (95% CI) [1]: 5 (62.5%) | Confirmed Objective Response Rate n(%) (95% CI) [1]: 2 (25.0%) | Disease Control Rate n(%) (95% CI) [1]: 7 (87.5%) | Median DOR (95% CI) [1]: NE (2.66, NE) | Median PFS (95% CI) [1]: 4.78 (2.04, NE) months | Clinical Benefit Rate n(%) (95% CI) [2]: 3 (50.0%) | Confirmed Objective Response Rate n(%) (95% CI) [2]: 3 (50.0%) | Disease Control Rate n(%) (95% CI) [2]: 4 (66.7%) | Median PFS (95% CI) [2]: 4.11 (1.31, NE) months | Clinical Benefit Rate n(%) (95% CI) (ESOPH (Esophageal Cancer), N=6): 1 (16.7%) | Confirmed Objective Response Rate n(%) (95% CI) (ESOPH (Esophageal Cancer), N=6): 1 (16.7%) | Disease Control Rate n(%) (95% CI) (ESOPH (Esophageal Cancer), N=6): 2 (33.3%) | Median PFS (95% CI) (ESOPH (Esophageal Cancer), N=6): 1.31 (0.30, NE) months | Clinical Benefit Rate n(%) (95% CI) (GSTRC (Gastric Cancer), N=5): 0 (NE, NE) % | Confirmed Objective Response Rate n(%) (95% CI) (GSTRC (Gastric Cancer), N=5): 0 (NE, NE) % | Disease Control Rate n(%) (95% CI) (GSTRC (Gastric Cancer), N=5): 3 (60.0%) | Median PFS (95% CI) (GSTRC (Gastric Cancer), N=5): 2.30 (1.22, NE) months | Clinical Benefit Rate n(%) (95% CI) (HGG (High-grade Glioma), N=29): 10 (34.5%) | Confirmed Objective Response Rate n(%) (95% CI) (HGG (High-grade Glioma), N=29): 3 (10.3%) | Disease Control Rate n(%) (95% CI) (HGG (High-grade Glioma), N=29): 16 (55.2%) | Median DOR (95% CI) (HGG (High-grade Glioma), N=29): NE (NE, NE) | Median PFS (95% CI) (HGG (High-grade Glioma), N=29): 3.86 (2.96, 5.19) months | Clinical Benefit Rate n(%) (95% CI) [3]: 2 (40.0%) | Confirmed Objective Response Rate n(%) (95% CI) [3]: 2 (40.0%) | Disease Control Rate n(%) (95% CI) [3]: 4 (80.0%) | Median PFS (95% CI) [3]: 4.04 (0.39, NE) months | Clinical Benefit Rate n(%) (95% CI) (LGG (Low-grade Glioma), N=6): 3 (50.0%) | Confirmed Objective Response Rate n(%) (95% CI) (LGG (Low-grade Glioma), N=6): 2 (33.3%) | Disease Control Rate n(%) (95% CI) (LGG (Low-grade Glioma), N=6): 4 (66.7%) | Median DOR (95% CI) (LGG (Low-grade Glioma), N=6): NE (NE, NE) | Median PFS (95% CI) (LGG (Low-grade Glioma), N=6): NE (2.76, NE) | Clinical Benefit Rate n(%) (95% CI) (OVAR (Ovarian Cancer), N=4): 1 (25.0%) | Confirmed Objective Response Rate n(%) (95% CI) (OVAR (Ovarian Cancer), N=4): 1 (25.0%) | Disease Control Rate n(%) (95% CI) (OVAR (Ovarian Cancer), N=4): 2 (50.0%) | Median PFS (95% CI) (OVAR (Ovarian Cancer), N=4): 6.70 (NE, NE) months | Clinical Benefit Rate n(%) (95% CI) (Other, N=31): 18 (58.1%) | Confirmed Objective Response Rate n(%) (95% CI) (Other, N=31): 8 (25.8%) | Median PFS (95% CI) (Other, N=31): 5.52 (2.76, 8.61) months | Clinical Benefit Rate n(%) (95% CI) [4]: 7 (50.0%) | Confirmed Objective Response Rate n(%) (95% CI) [4]: 2 (14.3%) | Disease Control Rate n(%) (95% CI) [4]: 11 (78.6%) | Median DOR (95% CI) [4]: NE (NE, NE) | Median PFS (95% CI) [4]: 4.39 (1.41, NE) months | Clinical Benefit Rate n(%) (95% CI) [5]: 6 (46.2%) | Confirmed Objective Response Rate n(%) (95% CI) [5]: 5 (38.5%) | Disease Control Rate n(%) (95% CI) [5]: 12 (92.3%) | Median PFS (95% CI) [5]: 4.76 (3.02, NE) months | Clinical Benefit Rate n(%) (95% CI) (PCA (Prostate Cancer), N=2): 0 (NE, NE) % | Confirmed Objective Response Rate n(%) (95% CI) (PCA (Prostate Cancer), N=2): 0 (NE, NE) % | Disease Control Rate n(%) (95% CI) (PCA (Prostate Cancer), N=2): 0 (NE, NE) % | Median PFS (95% CI) (PCA (Prostate Cancer), N=2): 1.26 (1.18, NE) months | Clinical Benefit Rate n(%) (95% CI) [6]: 5 (100.0%) | Confirmed Objective Response Rate n(%) (95% CI) [6]: 4 (80.0%) | Disease Control Rate n(%) (95% CI) [6]: 5 (100.0%) | Median PFS (95% CI) [6]: NE (8.34, NE) | Clinical Benefit Rate n(%) (95% CI) (STS (Soft Tissue Sarcoma), N=2): 1 (50.0%) | Confirmed Objective Response Rate n(%) (95% CI) (STS (Soft Tissue Sarcoma), N=2): 0 (NE, NE) % | Disease Control Rate n(%) (95% CI) (STS (Soft Tissue Sarcoma), N=2): 1 (50.0%) | Median PFS (95% CI) (STS (Soft Tissue Sarcoma), N=2): NE (3.94, NE) | Clinical Benefit Rate n(%) (95% CI) (Total, N=178): 82 (46.1%) | Confirmed Objective Response Rate n(%) (95% CI) (Total, N=178): 52 (29.2%) | Disease Control Rate n(%) (95% CI) (Total, N=178): 129 (72.5%) | Median PFS (95% CI) (Total, N=178): 4.21 (4.04, 5.52) months | Clinical Benefit Rate n(%) (95% CI) [7]: 3 (42.9%) | Confirmed Objective Response Rate n(%) (95% CI) [7]: 3 (42.9%) | Disease Control Rate n(%) (95% CI) [7]: 4 (57.1%) | Median PFS (95% CI) [7]: 4.07 (1.38, NE) months | Clinical Benefit Rate n(%) (95% CI) (sqNSCLC (Squamous NSCLC), N=11): 3 (27.3%) | Confirmed Objective Response Rate n(%) (95% CI) (sqNSCLC (Squamous NSCLC), N=11): 3 (27.3%) | Disease Control Rate n(%) (95% CI) (sqNSCLC (Squamous NSCLC), N=11): 10 (90.9%) | Median PFS (95% CI) (sqNSCLC (Squamous NSCLC), N=11): 5.03 (2.37, NE) months | Median OS (95% CI) (BRST (Breast Cancer), N=14): 8.87 (4.86, NE) months | Median OS (95% CI) (CCA (Cholangiocarcinoma), N=31): 14.46 (12.09, NE) months | Median OS (95% CI) (CRC (Colorectal Cancer), N=6): 5.68 (1.22, NE) months | Median OS (95% CI) (CRVX (Cervical Cancer), N=4): 4.40 (3.48, NE) months | Median OS (95% CI) [1]: 11.99 (2.99, NE) months | Median OS (95% CI) [2]: NE (1.74, NE) | Median OS (95% CI) (ESOPH (Esophageal Cancer), N=6): 3.42 (1.28, NE) months | Median OS (95% CI) (GSTRC (Gastric Cancer), N=5): 3.29 (2.89, NE) months | Median OS (95% CI) (HGG (High-grade Glioma), N=29): 6.49 (3.75, 14.39) months | Median OS (95% CI) [3]: NE (0.39, NE) | Median OS (95% CI) (LGG (Low-grade Glioma), N=6): 10.94 (5.72, NE) months | Median OS (95% CI) (OVAR (Ovarian Cancer), N=4): NE (NE, NE) | Median OS (95% CI) (Other, N=31): NE (3.94, NE) | Median OS (95% CI) [4]: NE (3.29, NE) | Median OS (95% CI) [5]: 12.12 (7.26, NE) months | Median OS (95% CI) (PCA (Prostate Cancer), N=2): NE (3.48, NE) | Median OS (95% CI) [6]: NE (NE, NE) | Median OS (95% CI) (STS (Soft Tissue Sarcoma), N=2): NE (3.94, NE) | Median OS (95% CI) (Total, N=178): 10.94 (7.89, 14.26) months | Median OS (95% CI) [7]: NE (2.40, NE) | Median OS (95% CI) (sqNSCLC (Squamous NSCLC), N=11): 6.83 (2.37, NE) months | Median DOR [8]: 6.08 (NE, NE) months | Objective Response Rate [8]: 3 (42.9%) (9.9%, 81.6%)
